Measurements published in paper PMC12587574, “Mass balance, pharmacokinetics, metabolism, and excretion of radiolabeled acoziborole, a potential novel treatment for human African trypanosomiasis, following single microtracer oral dose to humans” (Antimicrobial Agents and Chemotherapy, 2025).
Read-outs that look alike come from different tables or passages of the source.

Columns and labels:
[1] = Plasma pharmacokinetics of acoziborole and SCYX-3109 by LC-MS/MS, phase I mass balance study; assay type: in vivo, human
Method: This single-center, open-label, single group, non-randomized, single oral dose study was performed at Quotient Sciences Ltd (Ruddington, Nottingham, UK). Clinical trial authorization was obtained from the Medicines and Healthcare Products Regulatory Agency (UK). Approval for administration of [^14C]-acoziborole was obtained from an expert committee sponsored by the Department of Health and Social Care in the United Kingdom (Administration of Radioactive Substances Advisory Committee [ARSAC]), and from the ARSAC-accredited Quotient Sciences’ nuclear medicine practitioner. This study was approved by a local research ethics committee in the United Kingdom and was conducted in compliance with the Declaration of Helsinki and the International Conference on Harmonisation E6 Guideline for Good Clinical Practice. The study was registered in clinicaltrials.gov (NCT04270981) and in EudraCT (reference 2019-004059-35). Written informed consent was obtained from all participants before undertaking any study-related procedures.
Participants were admitted in the evening of the day before dosing (Day −1) and were dosed in the morning of Day 1, following an overnight fast from food and drink of a minimum of 9 h. They remained fasted until approximately 4 h post-dose, at which time lunch was provided. Participants remained resident in the clinic until up to 240 h after dosing (up to Day 11). […] However, due to the COVID-19 pandemic, instead of returning for the outpatient visits, participants were requested to perform home collection of feces for a 48-h period (i.e., Days 31–33, Days 59–61, Days 89–91, and Days 119–121). Collected samples were couriered to the clinical unit at the end of each collection period. A follow-up call took place 5–10 days after the final outpatient visit to ensure the well-being of participants.
Venous blood samples were collected via an indwelling cannula or by venepuncture. A 12 mL sample was taken into heparinized glass tube and chilled on ice immediately before IP administration and 3 mL samples were taken at 1, 4, 9, 12, 24, 48, 72, 96, 120, 144, 168, and 240 h and on Days 15, 31, 59, 89, and 119 after IP administration. The first 0.5 mL of blood withdrawn via cannula was discarded. One aliquot of heparinized whole blood (1 mL) per time point was stored at or below −20°C for total radioactivity analysis. The remaining blood was centrifuged, and the harvested plasma was stored at approximately −20°C for bioanalysis or transferred (exactly 1 mL) into polypropylene tubes pre-filled with 5 µL formic acid. One plasma sample (0.5 mL) was used for metabolite profiling while another (0.5 mL) was used for parent drug and SCYX-3109 metabolite analysis. The remaining plasma was used for total radioactivity analysis.
(§1) SGS Belgium (Wavre, Belgium) performed the analysis to determine acoziborole and SCYX-3109 concentrations, using validated bioanalytical assays with liquid chromatography with tandem mass spectrometry (LC-MS/MS) with a Supelco Ascentis Express C8, 2.7 µm, 50 × 2.1 mm I.D. separation column. In plasma, the lower limit of quantification (LLOQ) was 25 ng/mL for acoziborole and 10 ng/mL for SCYX-3109. In urine, the LLOQ was 10 ng/mL for both acoziborole and SCYX-3109.
PK parameters were calculated based on actual sampling times using standard non-compartmental analysis and WinNonlin version 8.1 software (Certara, Princeton, NJ, USA).
The SCYX-3109 to parent ratios were calculated based on Cmax and AUC0–∞.

[2] = Metabolite profiling and identification in pools of plasma, urine and feces (UPLC-MS, AMS); assay type: in vivo, human
Method: Individual pools of plasma (0–336 h, including time points at 1, 4, 9, 12, 24, 48, 72, 96, 120, 168, 240, and 336 h), urine (0–240 h, including time intervals 0–6, 6–12, 12–24, 24–48, 48–72, 72–96, 96–120, 120–168, 168–192, 192–216, and 216–240 h) and feces homogenates (0–240 h, including time intervals 0–6, 6–12, 12–24, 24–48, 48–72, 72–96, 96–120, 120–168, and 168–240 h) were prepared; for plasma this was done according to the method described in reference and for feces by using equal percentages per time point based on total volume. Subsequently, a pool per matrix was prepared by mixing equal volumes of each participant pool. In addition, a plasma pre-dose pool was prepared by mixing equal volumes of each pre-dose sample. For urine and feces, TNO blank pool was used to generate a pre-dose sample. Samples were stored below −18°C. Samples (100 µL plasma, 250 µL urine, and 200 mg feces) were pre-treated and injected onto an ultra-high performance liquid chromatography (UPLC)-MS system (Acquity UPLC system [Waters] coupled to a Q-Exactive [Thermo]; Acquity HSS C18 VanGuard 5 mm × 2.1 mm, 1.8 µm [Waters] pre-column and Acquity HSS C18 100 mm × 2.1 mm, 1.8 µm d.p. [Waters]). Fractions were collected and analyzed off-line by AMS. AMS analysis was performed on an AMS system, consisting of an elemental analyzer, a double gas interface, and a 1 MV multi-element AMS. All fecal homogenate sample analyzes were performed in triplicate. Plasma pre-dose and TNO blank urine and feces pools were used for background correction. The UPLC method qualification included determination of retention time stability and extraction recovery. Metabolites were tentatively assigned to fractions in which activity greater than the baseline was observed, based on retention time and structural information provided by DNDi. Presence of the metabolite was confirmed by accurate mass data from high-resolution mass spectrometric analysis.

[3] = parameters: method as in PMID 21707314; conditions: cited from earlier work
[4] = Urinary excretion / renal clearance of acoziborole and SCYX-3109 by LC-MS/MS; assay type: in vivo; conditions: male, human, urine and plasma; CumAe0–240h/AUC0–240h; mean ± SD; 960 mg single oral dose of acoziborole; read-out: renal clearance CLr0–240h (converted)
Method: Urine samples were collected before IP administration (single urine void) and then during intervals of 0–6, 6–12, 12–24, 24–48, 48–72, 72–96, 96–120, 120–168, 168–192, 192–216, and 216–240 h post-dose and for the additional 48-h collection period starting on Day 15 post-dose, that is, 336–384 h. Samples were acidified with citric acid to avoid acoziborole degradation and were refrigerated until the end of the block collection periods. The total weight and volume of urine were then recorded. At the end of each collection period, two aliquots of acidified urine (20 mL) were taken from the sample and stored in polypropylene tubes at −20°C until further analysis for total radioactivity. Two aliquots of 1 mL acidified urine were collected into tubes containing bovine serum albumin in aqueous solution (to avoid non-specific adsorption of acoziborole) and NaCl for acoziborole and SCYX-3109 assays. […]
as §1, with “In urine, the LLOQ was 10 ng/mL for both acoziborole and SCYX-3109.” left out

[5] = parameters: method as in PMID 36763327; conditions: human, after acoziborole; cited from earlier work

CC(C)(O)c1ccc(NC(=O)c2ccc(F)cc2C(F)(F)F)cc1O [SCYX-3109]
AUC(0-t) ([1]; human, plasma, po, 960 mg, 960 mg single oral dose of acoziborole, N = 6, mean ± SD, read-out: AUC0–240h in plasma): 4370 ± 1020 ng·h/mL
AUC(0-t) ([1]; human, plasma, po, 960 mg, 960 mg single oral dose of acoziborole, N = 6, mean ± SD, read-out: AUC0–t in plasma): 3730 ± 2320 ng·h/mL
Tmax ([1]; human, plasma, po, 960 mg, 960 mg single oral dose of acoziborole, N = 6, mean ± SD, read-out: tmax in plasma): 76.1 ± 28 h
Cmax ([1]; male, human, plasma, 960 mg single oral dose of acoziborole, healthy males, N = 6, mean ± SD): 30.5 ± 10.7 ng/mL
plasma level relative to acoziborole, AUC0–240h ratio ([1]; over the 240-h period, 960 mg single oral dose): 0.2%
proportion of the dose excreted, urine and feces combined ([2]; 0–240 h pools): 12.3%
abundance relative to dose, feces ([2]; feces homogenates 0–240 h): 12.3%
relative abundance in radiochromatogram, feces homogenates pool ([2]; feces homogenates 0–240 h): 24.2%
relative abundance in radiochromatogram (share of total radioactivity), plasma pool ([2]; plasma pool 0–336 h, 960 mg single oral [14C]-acoziborole): could not be detected
activity of the metabolite [3]: inactive
CL renal [4]: 0.6 mL/min
plasma concentrations at all time points [5]: very low
